Source: patent US20220002723A1, “METHODS FOR THE TREATMENT OF SMALL ROUND CELL TUMORS” (Board of Regents, The University of Texas System, priority 2018, published 2022)

Key:
JN-DSRCT cell line = details: JN-DSRCT cells; at high levels of DHT
[1] = system: LNCaP prostate cancer cell line; details: LNCaP cells; at high levels of DHT
[2] = system: TC-71 Ewing sarcoma cells; details: TC-71 ES cells, lack AR expression

SMILES | proliferation on stimulation with AR agonist (JN-DSRCT cell line) | proliferation on stimulation with AR agonist [1] | proliferation on stimulation with AR agonist [2]
C[C@]12CCC(=O)C[C@@H]1CC[C@@H]1[C@@H]2CC[C@]2(C)[C@@H](O)CC[C@@H]12 [DHT, 5a-dihydrotestosterone] | increased proliferation | increased proliferation | no effect and not
C[C@]12CC[C@H]3[C@@H](CCC4=CC(=O)CC[C@@]43C)[C@@H]1CC[C@@H]2O [testosterone] | increased proliferation | increased proliferation | no effect
